Measurements: patent US9828351B2, “Enzyme interacting agents” (MONASH UNIVERSITY, priority 2014, dated 2017)

Columns and labels:
[1] = biological target: T1, recombinant his tagged human SphK1 (Homo sapiens, UniProt Q9NYA1); experiment: SphK1 activity assay (32P-labelled S1P production); type: biochemical; conditions: 10 μM compound; % of activity compared to control (DMSO vehicle only)
T1 construct: His tag; made in house; host or cells: insect cells (baculovirus system)
Protocol: (§1) The SphK assays employed, measure SphK activity through the production of ^32P-labelled S1P following the addition of exogenous Sph and [γ^32P] ATP.
(§2) Activities of SphK1 and SphK2 were determined using identical assay conditions with the exception that SphK1 assays used 3 ng/assay recombinant his tagged human SphK1 (made in the lab in a baculovirus system using insect cells), while SphK2 assays used 30 ng/assay recombinant human SphK2 (purchased by Johnson and Johnson).
(§3) Compounds were dissolved in DMSO at 10 mM, the mixture was vortexed (and sonicated if necessary). Stock solutions were kept at 4° C. until used.
(§4) Aliquots were made containing 100 μM drug compound. These aliquots were then diluted in assay buffer: 100 mM tris/HCl pH 7.4, 100 mM NaCl, 1 mM sodium orthovanadate, 10 mM NaF to make up a 10 μM solution.
(§5) Recombinant enzyme was diluted in assay buffer (above) to make up a final concentration of 0.03 ng/μL (SphK1) or 0.33 ng/μL (SphK2).
(§6) 40 μL recombinant enzyme was added to an Eppendorf® Safe-Lock® microcentrifuge tube. This was followed by the addition of drug compound from prepared aliquots, before adding ATP, [γ^32P]ATP and Sph. Note: ATP stock is made up in 1M Tris pH 7.4 and 200 mM MgCl2. This allows ATP to complex with Mg and be available as a substrate.
(§7) The rest of the reaction mixture was then added to the enzyme sample (Table 1). All reactions were performed as triplicates.
(§8) Reaction mixture was prepared with sufficient volume to assay all of the required samples. To do this, each of the volumes shown was multiplied by n+1, where n is the number of samples to be assayed. Assay buffer used is made up of 100 mM tris/HCl pH 7.4, 100 mM NaCl, 1 mM sodium orthovanadate and 10 mM NaF.
(§9) The mixture was then incubated at 37° C. for 20 min (SphK1)/45 min (SphK2).
(§10) To the 100 μL assay mixture, add 270 μl of chloroform/methanol/conc. HCl (100:200:1).
(§11) 20 μL of 5 M KCl was then added to the assay mixture.
(§12) 70 μL of chloroform was added to create phase separation. The solution was vortexed to mix well.
(§13) The solution was then centrifuged for 5 min at 13,000×g to fully separate the phases.
(§14) The upper aqueous/methanol phase was separated by aspiration.
(§15) 50 μL of the remaining lower chloroform phase […] was applied onto the TLC plate by repeatedly spotting a few microliters of liquid (<5 mm diameter circle) between each sample spot with the pipette tip. The liquid was then allowed to absorb into the plate before drying with a stream of air.
(§16) The TLC plate was developed in a glass TLC developing tank with 1-butanol/ethanol/glacial acetic acid/H2O (8:2:1:2) until the mobile phase is within 1 cm of the top of the TLC plate.
(§17) The TLC plate was then exposed to a storage phosphor screen overnight. Storage phosphor screens work by capturing images produced by ionising radiation (e.g. ^32P). The phosphorimager stimulates the screen which uses lasers to convert the latent signal to light. Light is proportional to the amount of radioactivity in the sample. The image is then quantified using standard quantification software (ImageQuant™). Whatman paper with the assay mixture dilutions, was included to assist quantification of the phosphor signal.
(§18) Once the storage phosphor screen was read using the phosphorimager, S1P spots, which have an Rf of 0.7 with the mobile phase employed, were quantified.
(§19) The S1P spot intensity can be converted to the amount of phosphate transferred/min/mg protein.

[2] = biological target: T2, recombinant human SphK2 (Homo sapiens, UniProt Q9NRA0); experiment: SphK2 activity assay (32P-labelled S1P production); type: biochemical; conditions: 10 μM compound, % of activity compared to control (DMSO vehicle only)
T2 construct: purchased Johnson and Johnson
T2 sequence (Q9NRA0 1-654): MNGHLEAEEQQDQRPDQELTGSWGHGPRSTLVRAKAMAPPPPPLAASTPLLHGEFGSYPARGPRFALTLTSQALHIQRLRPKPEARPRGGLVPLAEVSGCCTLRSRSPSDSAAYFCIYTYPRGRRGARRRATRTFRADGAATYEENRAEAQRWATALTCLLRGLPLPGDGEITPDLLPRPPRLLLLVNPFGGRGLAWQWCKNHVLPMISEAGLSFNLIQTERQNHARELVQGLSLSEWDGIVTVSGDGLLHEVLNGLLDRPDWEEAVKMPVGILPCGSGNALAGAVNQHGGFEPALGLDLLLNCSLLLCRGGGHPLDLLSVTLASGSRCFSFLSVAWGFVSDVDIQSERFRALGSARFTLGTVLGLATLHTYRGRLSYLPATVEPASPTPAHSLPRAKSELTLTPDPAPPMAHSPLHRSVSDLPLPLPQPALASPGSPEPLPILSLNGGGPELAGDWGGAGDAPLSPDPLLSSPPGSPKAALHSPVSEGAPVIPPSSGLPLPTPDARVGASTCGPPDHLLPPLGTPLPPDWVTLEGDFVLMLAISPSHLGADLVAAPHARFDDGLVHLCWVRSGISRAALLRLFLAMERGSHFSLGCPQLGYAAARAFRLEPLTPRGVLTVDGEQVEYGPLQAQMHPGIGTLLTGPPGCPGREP
Protocol: as §1, §2, §3, §4, §5, §6, §7, §8, §9, §10, §11, §12, §13, §14, §15, §16, §17, §18, §19

[3] = system: PC3 prostate cancer cell lines; experiment: Anticancer activity in PC3 cell line, CellTitre AQueous One cell viability assay; type: cell-based; conditions: concentration required to inhibit cell proliferation by 50%, 72 hours
Protocol: Measurement of Anticancer Activity in PC3 Cell Line Assays
PC3 prostate cancer cell lines were cultured in DMEM (containing 10% fetal calf serum and penicillin-streptomycin).
Before treatment with drug compounds, cells were plated at 2,500 cells/well in 96 well plates and incubated at 37° C. with 5% CO2 in a humidified incubator for 24 hours prior. Cells were only plated in columns 3-10 and rows C—F to ensure uniform humidity and warmth across all wells. The remaining wells were filled with 100 μL of phosphate buffered saline.
Drug stock solutions (50 or 10 mM) were diluted×1000 in media to a final concentration of either 50 μM or 10 μM with a DMSO vehicle concentration of 0.1%.
Cell culture supernatants were aspirated and replaced with drug containing media. Drug treatments were performed in duplicate wells, while potential plate layout-specific variation in cell growth was accounted for by addition of a vehicle control (0.1% DMSO).
Cells were then incubated with drug compounds at 37° C. with 5% CO2 in a humidified incubator for 72 hours prior to assay.
Media was diluted with CellTitre AQueous One Solution (Promega, Australia; Cat # G3580) according to manufacturer's instructions to produce a final concentration of 317 μg/mL.
Cell culture supernatants were then aspirated from wells and replaced with 100 μL of CellTitre solution. Triplicate cell-free control wells containing only CellTitre solution were also included in each assay.
Cells were then incubated at 37° C. with 5% CO2 in a humidified incubator for 1 hour at which time absorbance was read at 490 nm with an EnVision microplate reader (Perkin Elmer, Australia).
When analysing data, background absorbance (taken from cell-free control wells) was subtracted from each reading. […] For each drug concentration the mean (±SEM) is calculated and graphed using GraphPad Prism (version 5). A sigmoidal curved is fitted to the data and used to calculate the IC50 of each compound.

[4] = system: Neonatal cardiac fibroblasts (NCFs) collagen synthesis; experiment: Inhibition of NCF collagen synthesis by 3H-proline incorporation; type: cell-based
Protocol: Neonatal cardiac fibroblasts (NCFs) were isolated as previously reported (Lekawanvijit, S. Wang, B. H., Krum, H. Eur Heart J. 2010, 31(14), 1771-9). After isolation, NCF (passage 0) were placed into T75 cell culture flasks (BD Falcon, NSW, Australia) and maintained in high-glucose (25 mM) DMEM containing 5.33 mM KCl (Invitrogen, Mount Waverley, Vic, Australia) in the presence of 1% antibiotic/antimycotic (Invitrogen, Mount Waverley, Vic, Australia) and 10% fetal bovine serum (FBS) (JRH biosciences). Cells were incubated at 37° C. with 5% CO2 for overnight and then the media were changed. NCF confluence was checked microscopically and NCF were sub-cultured. After removing media and 3× wash with warm 1×PBS, 2 ml of warm 0.05% trypsin-EDTA was added to each flask. Flasks were placed back into the 37° C. incubator for 1-2 minutes to allow cells to lift off the surface of the flasks. Trypsin was inactivated by adding 8 ml of DMEM containing 10% FBS. NCF (passage 1) were centrifuged for 6 minutes at 1300 rpm at RT. Cell pellets was washed 3× with DMEM+10% FBS and resuspended in DMEM+10% FBS. Cells were then placed into new flasks and incubated at 37° C. with 5% CO2 for 48 hours.
To seed NCF, steps from trypsinization to resuspension were repeated as above. NCF (passage 2) were counted with the ‘Countess’ cell counter. […]

[5] = biological target: T3, Dihydroceramide Desaturase-1 (Des1) (Homo sapiens, UniProt O15121); experiment: Dihydroceramide desaturase-1 (Des1) activity by HPLC in intact Jurkat cells labeled with DhCer-C6-NBD; type: cell-based; conditions: intact Jurkat cells; for IC50: read-out: Des 1 IC50
T3 construct: These modifications included the use of parental Jurkat cells; endogenous in cells; host or cells: parental Jurkat cells
T3 sequence (O15121 1-323): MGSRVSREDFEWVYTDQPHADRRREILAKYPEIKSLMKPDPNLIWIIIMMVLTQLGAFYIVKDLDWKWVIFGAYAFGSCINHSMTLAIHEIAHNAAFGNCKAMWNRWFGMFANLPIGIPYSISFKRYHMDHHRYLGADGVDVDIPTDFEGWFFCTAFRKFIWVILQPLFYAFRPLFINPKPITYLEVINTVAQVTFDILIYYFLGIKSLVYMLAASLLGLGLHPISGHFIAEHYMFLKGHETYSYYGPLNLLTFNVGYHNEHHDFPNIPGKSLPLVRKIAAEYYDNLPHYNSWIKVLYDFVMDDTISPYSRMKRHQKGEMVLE
Protocol: Measurement of Dihydroceramide Desaturase-1 (Des1) Activity:
These modifications included the use of parental Jurkat cells, 0.5% serum in the culture media, and cell harvesting via centrifugation at 500×g to maximise ceramide extraction. Extracted samples (50 ul) were analysed on a Waters HPLC coupled to a fluorescence detector using a 30 cm C18 reverse-phase column eluted with 1 ml/min 20% H2O and 80% acetonitrile, both with a 0.1% of trifluoroacetic acid.

[6] = biological target: T4, SphK1a in Flpln-SphK1a cells (Flp-In T-Rex HEK293) (Homo sapiens, UniProt Q9NYA1); experiment: SphK1 proteasomal degradation study (immunoblotting); type: cell-based; conditions: 10 μM test compound, 24 h
T4 construct: expressed in transfected cells; host or cells: Flp-In T-Rex HEK293 cells, doxycycline-induced
Protocol: These studies were performed as previously described for the drug SKI-II (C. Loveridge et al. J. Biol. Chem. 2010, 285, 38891). […] After 24 h cells were treated with 10 μm test compound, 10 μm MG132, or both. DMSO was used as the vehicle control. After a further 24 h, cells were harvested, lysed, and subjected to SDS-PAGE and immunoblotting with anti-FLAG (Sigma), anti-ERK1/2 (Promega), or anti-a-tubulin (Abcam) antibodies.

[7] = system: MCF7 breast cancer cells; experiment: Anticancer activity in MCF7 cell lines, MTS assay; type: cell-based; conditions: Homo sapiens, concentration required to inhibit cell proliferation by 50%, 72 hrs, read-out: MCF-7 IC50
Protocol: Measurement of Anticancer Activity in MCF7 Cell Lines
MCF7 breast cancer cells were treated with the test compounds and incubated at 37° C., 5% CO2 in air for 72 hrs. The MTS assay was conducted with addition of prepared MTS solution followed by 2 hr incubation, an OD reading and the raw data recorded. The data was managed in tabular form, values adjusted for vehicle control, and the adjusted values graphed as a sigmoidal curve and the EC50 value calculated.

T1 sequence (Q9NYA1 whole entry): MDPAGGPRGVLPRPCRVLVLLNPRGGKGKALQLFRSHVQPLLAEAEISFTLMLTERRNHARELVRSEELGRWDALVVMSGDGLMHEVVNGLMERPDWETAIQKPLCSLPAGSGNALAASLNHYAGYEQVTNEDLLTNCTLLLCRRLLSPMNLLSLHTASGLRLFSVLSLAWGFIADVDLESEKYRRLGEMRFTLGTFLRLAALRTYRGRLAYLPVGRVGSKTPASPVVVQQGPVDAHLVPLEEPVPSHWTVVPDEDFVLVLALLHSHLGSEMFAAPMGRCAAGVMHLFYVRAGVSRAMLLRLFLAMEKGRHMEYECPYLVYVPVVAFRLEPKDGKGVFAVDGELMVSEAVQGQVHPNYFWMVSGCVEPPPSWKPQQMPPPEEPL
T4 sequence (Q9NYA1 whole entry): as above

Row | Molecule | SphK1% activity at 10 μm [1] | SphK2% actvity at 10 μm [2] | IC50 [3] [µM] | IC50 [5] [µM] | IC50 ([3]; Homo sapiens, PC-3) [µM] | other results
1 | (Z)-4-(5-(4-Chlorophenyl)-1,3,4-oxadiazol-2-yl)-N′-hydroxybenzimidamide [Example E-14] | 100-150% | 80-100% | > 100 |  |  | EC (effective concentration: concentration required to reduce collagen synthesis to a level equal to or below unstimulated control) [4]: 0.5 to 5 µM
2 | Oc1ccc(Nc2nnc(-c3ccccc3)o2)cc1 [Example E-25, 4-((5-Phenyl-1,3,4-oxadiazol-2-yl)amino)phenol] |  |  |  | 1 to 10 |  | melting point: 231 °C
3 | 3-(4-((5-(4-Chlorophenyl)-1,3,4-oxadiazol-2-yl)amino)phenyl)-1,2,4-oxadiazol-5(4H)-one [Example E-16] | 100-150% | 100-150% | 0.1 to 1 |  |  | Des 1 IC50 [5]: inactive
4 | 3-(4-(5-(4-Chlorophenyl)-1,3,4-oxadiazol-2-yl)phenyl)-1,2,4-oxadiazol-5(4H)-one [Example E-15] | 50-80% | 80-100% | 0.1 to 1 |  |  | % SphK1a degradation at 10 μM [6]: 50%
5 | O=S1NC(c2ccc(Nc3nnc(-c4ccc(Cl)cc4)o3)cc2)=NO1 (centres unmarked) [Example E-28, 5-(4-Chlorophenyl)-N-[4-(2-oxido-3H-1,2,3,5-oxathiadiazol-4-yl)phenyl]-1,3,4-oxadiazol-2-amine] |  |  |  | 1 to 10 | 10 to 100 | activity at 10 µM [1]: < 1%; remaining activity at 10 µM ([2]; read-out: SphK2% actvity at 10 μm): 5 to 20%
6 | O=C(Nc1ccc(O)cc1)c1nc(-c2ccc(Cl)cc2)cs1 [Example E-5, 4-(4-Chlorophenyl)-N-(4-hydroxyphenyl)thiazole-2-carboxamide] |  |  |  |  | 10 to 100 | IC50 [7]: 10 to 100 µM
